{"source": "patent US7563862B2", "about": "“Neural regeneration peptides and methods for their use in treatment of brain damage” (Neuren Pharmaceuticals Limited, priority 2001, dated 2009)", "test_system": "thalamic parvalbumin-ir neurons", "assay": "BrdU/parvalbumin proliferation within thalamocortical OTCs", "assay_type": "cell-based, rat", "conditions": "3 nM", "description": "Thalamocortical OTCs from rats, as described above in Examples 3 and 4 were incubated at the start of cultivation with 2 μM of BrdU that was removed after 24 hours of cultivation time. OTCs were fixed in 4% paraformaldehyde in 0.1 M phosphate buffer (pH 7.4). Blocking was done in 0.4% Triton and 10% normal goat serum in PBS for 30 minutes. Subsequently the cultures were treated for 30 minutes in 2N HCl at 37° C. and neutralized by 0.1 M Na2B4O7 for 2×5 minutes. Internal peroxidase activity was prevented by 5 minute treatment of the OTCs in 1% H2O2 (only in case of the PAP reaction). Primary antibody (mouse anti-BrdU 1/50-Sigma) reaction was done overnight in 0.4% Triton, 2% BSA in PBS.\nBiotinylated goat anti-mouse IgG was applied (1/200 for 2 h) with the subsequent application of the avidin biotin horseradish peroxidase system and the final DAB-detection (0.05%); 0.009% H2O2 enhanced by 0.025% cobalt chloride and 0.02% nickel ammonium sulphate. BrdU-positive nuclei become black stained. […] For double fluorescence detection, mouse anti-BrdU IgG and rabbit anti-parvalbumin IgG (or rabbit anti-calretinin 1/1000) were given simultaneously after the neutralisation step and anti-parvalbumin antibody binding was detected by the biotin-streptavidin/Cy2 detection system while the occurrence of BrdU was monitored by an anti-mouse/Cy3 IgG. […]", "note": "Values joined by “and” are separate entries in the source; they are usually repeats but may differ in a detail not shown here. Identical values can stand only once. Ends that are not written are not given here."}
{"substance": "NRP-1: rat 16 amino acid neural regeneration peptide purified from hippocampal OTC supernatant, Tyr Asp Pro Glu ... Cys His-NH2 (YDPEAASAPGSGNPCH-NH2)", "values": [{"measurement": "parvalbumin-ir thalamic neurons co-localised with BrdU", "setting": "5 days in vitro", "result": "6.8±1.3% and 6.8%"}, {"measurement": "enhanced proliferation of parvalbumin expressing neurons compared to controls", "setting": "vs defined medium alone", "result": "up to 150%"}]}
